# The supplement of paper PMC10307832
# Compound: O=c1ncccn1[C@@H]1O[C@H](CO)[C@@H](O)[C@H]1O [Zebularine] + O=C(CCCCCCC(=O)Nc1ccccc1)NO [Vorinostat] (partner 1 µM)
# Test: relative viability (nuclei count vs DMSO), 5 days (fraction); higher = more cells survive
# Details: first compound 1 µM
# Method in brief: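 Relative viability was taken as the ratio of nuclei in treated wells to nuclei in vehicle wells. Lung cancer cell lines in 1536-well plates received compounds by pin tool one day after seeding, either one drug alone or a fixed anchor-drug dose plus five library-drug doses (not always all listed) in √10 steps. Nuclei were counted on 4× images after 5 days of treatment, and values are medians of duplicate plates.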
row,Cell Line,relative viability
1,NCI-H520,0.752
2,NCI-H2126,0.664
3,EMC-BAC-2,0.521
4,NCI-H2085,0.804
5,HCC-366,0.488
6,NCI-H1666,1.01
7,NCI-H596,0.628
8,LK-2,0.277
9,NCI-H2087,1.1
10,NCI-H1648,0.554
11,SK-MES-1,1.28
12,H3255,0.793
13,COR-L23,0.511
14,COR-L 105,1.38
15,IA-LM,1.01
16,LOU-NH91,0.981
17,ChaGo-K-1,0.767
18,NCI-H2170,0.886
19,NCI-H2405,1.2
20,HCC-44,1.15
21,NCI-H522,0.797
22,SW 900,0.497
23,NCI-H1395,0.7
24,NCI-H1793,0.819
25,NCI-H1944,0.534
26,ABC-1,1.15
27,NCI-H358,0.837

# Same assay, conditions: first compound 3.162 µM
row,Cell Line,relative viability
1,NCI-H2342,0.642
2,NCI-H727,1.14
3,NCI-H1650,0.57
4,NCI-H1993,0.763
5,SW 1573,0.689
6,NCI-H838,0.723
7,LCLC-103H,0.697
8,NCI-H520,0.685
9,NCI-H2126,0.524
10,EMC-BAC-2,0.481
11,NCI-H2085,0.835
12,HCC-366,0.372
13,NCI-H1666,1.02
14,NCI-H596,0.598
15,LK-2,0.315
16,NCI-H2087,0.652
17,NCI-H1648,0.494

row,Cell Line,relative viability
1,SK-MES-1,1.18
2,H3255,0.864
3,COR-L23,0.475
4,COR-L 105,0.898
5,IA-LM,0.697
6,LOU-NH91,0.899
7,ChaGo-K-1,0.648
8,NCI-H2170,0.842
9,NCI-H2405,0.981
10,HCC-44,1.14
11,NCI-H522,0.938
12,SW 900,0.667
13,NCI-H1395,0.753
14,NCI-H1793,0.895
15,NCI-H1944,0.573
16,ABC-1,1.02
17,NCI-H358,0.696

# Same assay, conditions: first compound 10 µM
row,Cell Line,relative viability
1,NCI-H2342,0.674
2,NCI-H727,0.971
3,NCI-H1650,0.506
4,NCI-H1993,0.754
5,NCI-H838,0.654
6,LCLC-103H,0.706
7,NCI-H520,0.462
8,NCI-H2126,0.853
9,EMC-BAC-2,0.495
10,NCI-H2085,0.662
11,HCC-366,0.26
12,NCI-H1666,0.752
13,NCI-H596,0.358
14,LK-2,0.209
15,NCI-H2087,0.285
16,NCI-H1648,0.479

row,Cell Line,relative viability
1,SK-MES-1,0.914
2,COR-L23,0.389
3,COR-L 105,0.734
4,IA-LM,0.365
5,LOU-NH91,0.81
6,ChaGo-K-1,0.442
7,NCI-H2170,0.533
8,NCI-H2405,0.894
9,HCC-44,1.09
10,NCI-H522,0.802
11,NCI-H1395,0.661
12,NCI-H1793,0.41
13,NCI-H1944,0.414
14,ABC-1,0.701
15,NCI-H358,0.327

# Same assay, conditions: first compound 31.62 µM
row,Cell Line,relative viability
1,NCI-H2342,0.679
2,NCI-H727,1.26
3,NCI-H1650,0.748
4,NCI-H1993,0.741
5,SW 1573,0.772
6,NCI-H838,0.859
7,LCLC-103H,0.77
8,NCI-H520,0.45
9,NCI-H2126,0.698
10,EMC-BAC-2,0.42
11,NCI-H2085,0.755
12,HCC-366,0.343
13,NCI-H1666,1.09
14,NCI-H596,0.577
15,LK-2,0.177
16,NCI-H2087,0.667
17,NCI-H1648,0.262

row,Cell Line,relative viability
1,SK-MES-1,1.09
2,H3255,0.795
3,COR-L23,0.299
4,COR-L 105,0.945
5,IA-LM,1.02
6,LOU-NH91,0.9
7,ChaGo-K-1,0.274
8,NCI-H2170,0.868
9,NCI-H2405,1
10,HCC-44,1.19
11,NCI-H522,1.01
12,SW 900,0.67
13,NCI-H1395,0.655
14,NCI-H1793,0.448
15,NCI-H1944,0.603
16,ABC-1,0.835
17,NCI-H358,0.358

# Same assay, conditions: first compound 100 µM
row,Cell Line,relative viability
1,NCI-H2342,0.712
2,NCI-H727,1.08
3,NCI-H1650,0.373
4,NCI-H1993,0.559
5,SW 1573,0.521
6,NCI-H838,0.402
7,LCLC-103H,0.75
8,NCI-H520,0.242
9,NCI-H2126,0.474
10,EMC-BAC-2,0.481
11,NCI-H2085,0.465
12,HCC-366,0.184
13,NCI-H1666,0.939
14,NCI-H596,0.612
15,LK-2,0.28
16,NCI-H2087,0.303
17,NCI-H1648,0.48

row,Cell Line,relative viability
1,SK-MES-1,0.351
2,H3255,0.75
3,COR-L23,0.174
4,COR-L 105,0.619
5,IA-LM,0.854
6,LOU-NH91,0.557
7,ChaGo-K-1,0.252
8,NCI-H2170,0.581
9,NCI-H2405,0.826
10,HCC-44,0.553
11,NCI-H522,0.778
12,SW 900,0.503
13,NCI-H1395,0.515
14,NCI-H1793,0.328
15,NCI-H1944,0.458
16,ABC-1,0.575
17,NCI-H358,0.223
